# From publication PMC3597608, “Yellow Fluorescent Protein-Based Assay to Measure GABAA Channel Activation and Allosteric Modulation in CHO-K1 Cells” (PLoS ONE, 2013)
# Where two headings read alike, the source gives them in different places.
# How the values were obtained:
# [1] = target: T1, human GABAA α2β3γ2 (Homo sapiens, UniProt P18507+P28472+P47869); assay: cell-based; type: cell-based
# T1 construct: expressed in transfected cells; host or cells: CHO-K1 (ATCC, CCL-61), transient electroporation with MaxCyte STX, cryopreserved assay-ready cells
# T1 sequence (P47869 29-451): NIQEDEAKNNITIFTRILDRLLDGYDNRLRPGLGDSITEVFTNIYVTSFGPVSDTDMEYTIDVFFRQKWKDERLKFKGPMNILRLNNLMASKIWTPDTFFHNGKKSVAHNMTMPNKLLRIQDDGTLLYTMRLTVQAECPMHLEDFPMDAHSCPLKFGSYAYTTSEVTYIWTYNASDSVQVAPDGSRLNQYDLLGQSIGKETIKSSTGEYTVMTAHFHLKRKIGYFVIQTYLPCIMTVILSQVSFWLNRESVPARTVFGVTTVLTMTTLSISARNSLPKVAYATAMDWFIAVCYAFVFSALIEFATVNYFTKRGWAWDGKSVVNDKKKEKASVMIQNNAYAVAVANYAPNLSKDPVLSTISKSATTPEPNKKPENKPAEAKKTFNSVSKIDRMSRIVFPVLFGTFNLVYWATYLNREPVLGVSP
# T1 sequence (P28472 26-473): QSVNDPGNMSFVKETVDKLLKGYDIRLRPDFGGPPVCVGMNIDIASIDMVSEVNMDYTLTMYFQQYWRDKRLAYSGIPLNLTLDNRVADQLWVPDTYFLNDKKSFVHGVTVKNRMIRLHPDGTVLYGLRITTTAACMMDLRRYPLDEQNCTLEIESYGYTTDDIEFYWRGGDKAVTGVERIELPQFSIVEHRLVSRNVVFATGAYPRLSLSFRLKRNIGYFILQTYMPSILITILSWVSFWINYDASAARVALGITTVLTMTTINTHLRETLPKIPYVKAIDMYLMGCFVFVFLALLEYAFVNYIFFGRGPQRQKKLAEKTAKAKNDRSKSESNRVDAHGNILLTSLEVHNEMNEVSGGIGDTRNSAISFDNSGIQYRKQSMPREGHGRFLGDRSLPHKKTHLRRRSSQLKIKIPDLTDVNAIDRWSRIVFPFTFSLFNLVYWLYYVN
# T1 sequence (P18507 40-467 isoform P18507-1 limits assumed): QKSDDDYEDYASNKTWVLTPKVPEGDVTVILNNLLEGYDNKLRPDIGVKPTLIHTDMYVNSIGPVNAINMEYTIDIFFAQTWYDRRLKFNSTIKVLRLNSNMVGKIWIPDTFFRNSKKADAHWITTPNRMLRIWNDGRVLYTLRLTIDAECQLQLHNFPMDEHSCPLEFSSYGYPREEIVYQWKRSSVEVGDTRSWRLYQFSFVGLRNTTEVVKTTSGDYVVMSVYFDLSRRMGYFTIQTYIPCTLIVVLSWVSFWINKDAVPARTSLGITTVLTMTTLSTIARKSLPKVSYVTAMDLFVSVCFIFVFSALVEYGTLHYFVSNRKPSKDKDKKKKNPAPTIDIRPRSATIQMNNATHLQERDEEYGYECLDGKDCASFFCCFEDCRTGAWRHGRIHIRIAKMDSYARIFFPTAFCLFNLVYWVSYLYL
# Method: The cDNA of YFP (Genbank accession number AY818378) with H148Q and I152L mutations was inserted into the pcDNA3.1 vector using 5′ BamHI and 3′ NotI sites. Human GABAA subunits α2, β3 and γ2 (Genbank accession numbers; α2 NM_000807, β3 NM_000814, γ2 NM_000816) were inserted into pGen-IRES-neo2 vectors using NotI 5′ and 3′ sites.
# CHO-K1 cell line (ATCC, CCL-61) was cultured in Ham's F-12 medium supplemented with 10% fetal bovine serum and incubated at 37°C and 5% CO2. Transient transfection was performed using MaxCyte STX electroporation instrument (MaxCyte, Inc.) with CHO cell line specific electroporation protocol. The cells were split one day prior to electroporation to ensure that cells were in the log phase growth at time of transfection. Cells were harvested with Accutase (PAA Laboratories), pelleted at 250 g for 10 minutes, rinsed with MaxCyte Electroporation Buffer (MaxCyte, Inc.), pelleted again and resuspended in MaxCyte Electroporation Buffer at a density of 1×10^8 cells/ml. CHO-K1 cells were electroporated simultaneously with four plasmids using a total amount of 300 µg DNA per 1×10^8 cells; YFP-H148Q/I152L (150 µg) and GABAA (72.5 µg α2, […] and 72.5 µg γ2) plasmids. Following electroporation, cells were incubated at 37°C and 5% CO2 for 20 minutes to recover. Cells were then diluted in culture medium and centrifuged 250 g for 10 minutes. Pelleted cells were resuspended to 5–10×10^6 cells/ml in Ham's F12 with 20% fetal bovine serum and 10% DMSO, and cryopreserved using controlled-rate cryo containers (Nalgene, Thermo Scientific). Cryopreserved assay-ready cells were used for all experiments.
# Cryopreserved transiently transfected cells were thawed and plated in 384-well poly-D-lysine-coated plates at a density of 15000 cells/well using a Multidrop Combi Reagent Dispenser (Thermo Scientific). After 24 h incubation at 37°C and 5% CO2, cells were washed three times on an ELx405 Select Deep Well Microplate Washer (BioTEK), exchanging 50 µl culture medium with 30 µl HBSS buffer supplemented with 20 mM Hepes. Plates were incubated with buffer for 1 h at 37°C and 5% CO2. Cell plates were assayed on a FLIPR Tetra (Molecular Devices) using excitation filter of 470–495 nm and emission filter of 515–575 nm. Starting with 30 µl buffer in each well, cells were pre-incubated with 10 µl compound for 15 minutes. […] Compounds were initially solubilized to a concentration of 10 mM in DMSO and then diluted in HBSS buffer with 20 mM Hepes. Final DMSO concentration in the assay was 0.02% for modulators and at 1% for Picrotoxin and Bicuculline.
# Data at 1–10 s was adjusted to a baseline of 100% and results were then extracted as % quench at 120 s. % quench is defined as (Finit – Ffinal)/Finit*100 where Finit and Ffinal are the initial and final values of fluorescence respectively. […] Curve fits were performed using least-squares fitting routine (GraphPad Prism 5, GraphPad Software Inc.).
# The 95% confidence interval was calculated as 2× this standard error. Taking the anti-log converts this to a fold change (ratio) between two EC50 values.
# [2] = test system: α2β3γ2 ion channel subtype; design: method as in PMID 19090692; details: VSD assay; cited from earlier work
# [3] = test system: GABA α2β3γ2; design: method as in PMID 14680756, PMID 16183706; details: mouse fibroblast L(tk−) cells; cited from earlier work
# [4] = 1 µM modulator, p<0.05, difference in pEC50 ≥0.15 significant
compound,measurement,setting,value
CCCN(CCC)C(=O)Cc1c(-c2ccc(Cl)cc2)nc2ccc(Cl)cn12 [Alpidem],allosteric effect on GABA,"[1]; 1 µM modulator, 95% confidence",significant positive allosteric effect
same,Significance 95% confidence of pEC50 difference vs GABA alone,[1]; [4],Significant difference
CN1CCc2cc3c(cc2[C@H]1[C@@H]1OC(=O)c2c1ccc1c2OCO1)OCO3 [Bicuculline],IC50,[1],2140 nM
CN1C(=O)CC(=O)N(c2ccccc2)c2cc(Cl)ccc21 [Clobazam],allosteric effect on GABA,"[1]; 1 µM modulator, 95% confidence",significant positive allosteric effect
same,Significance 95% confidence of pEC50 difference vs GABA alone,[1]; [4],Significant difference
O=C1CC(=O)N(c2ccccc2)c2cc(Cl)ccc2N1 [Desmethyl-clobazam],Significance 95% confidence of pEC50 difference vs GABA alone,[1]; [4],non-significant
CN1C(=O)CN=C(c2ccccc2)c2cc(Cl)ccc21 [Diazepam],GABA EC50 shift,[1],1.7 fold
same,Significance 95% confidence of pEC50 difference vs GABA alone,[1],Significant difference
same,allosteric effect on GABA,[1],significant positive allosteric effect
same,modulation of GABA EC20 quench,[1],significant increase
same,pEC50 difference (GABA with modulator vs GABA alone),[2],0.41
Cn1ncnc1COc1nn2c(-c3cc(F)ccc3F)nnc2cc1C(C)(C)C [L-838417],allosteric effect on GABA,"[1]; 1 µM modulator, 95% confidence",not able to detect any significant allosteric modulation
same,Significance 95% confidence of pEC50 difference vs GABA alone,[1]; [4],non-significant
same,modulation of GABA signal,[2],detected modulation of GABA signal
same,"relative in vitro efficacy, potentiation of GABA EC20 compared to 100% response from chlordiazepoxide",[3],34%
O=C1Nc2ccc(Cl)cc2C(c2ccccc2Cl)=NC1O (centres unmarked) [Lorazepam],allosteric effect on GABA,"[1]; 1 µM modulator, 95% confidence",significant positive allosteric effect
same,Significance 95% confidence of pEC50 difference vs GABA alone,[1]; [4],Significant difference
"CCn1ncnc1COc1nn2c(-c3ccccc3F)nnc2cc1C(C)(C)C [TPA-023, 7-(1,1-dimethylethyl)-6-(2-ethyl-2H-1,2,4-triazol-3-ylmethoxy)-3-(2-fluorophenyl)-1,2,4-triazolo z[4,3-b]pyridazine]",allosteric effect on GABA,"[1]; 1 µM modulator, 95% confidence",not able to detect any significant allosteric modulation
same,Significance 95% confidence of pEC50 difference vs GABA alone,[1]; [4],non-significant
same,modulation of GABA EC20 quench,"[1]; EC20 of GABA with 1 µM modulator, 10 mM I−",No significant change
same,"relative in vitro efficacy, potentiation of GABA EC20 compared to 100% response from chlordiazepoxide",[3],11%
Picrotoxin,effect on basal (agonist-independent) YFP quench,"[1]; 100 µM, 15 min prior to buffer with different I− concentrations",reduced basal quench to background levels
same,effect on YFP quench in cells activated with EC80 of GABA,"[1]; 1 mM, EC80 of GABA in 10 mM NaI buffer",blocked YFP quench
